From patent US9604996B2 (Bayer Pharma Aktiengesellschaft, priority 2013, dated 2017)

Assays:
[1] = target: T1, human adenosine A2b receptor (Homo sapiens, UniProt P29275); assay: Cellular reporter gene (CRE-luciferase) A2b receptor antagonist assay in recombinant CHO-K1 cells stimulated with NECA; format: cell-based; settings: recombinant CHO-K1 cell line, co-incubation with EC50 concentration of NECA, 3 hours, in some cases means, rounded to two significant digits
T1 construct: expressed in transfected cells; host or cells: CHO-K1 (Chinese Hamster Ovary) with CRE-luciferase reporter
T1 sequence (P29275 1-332): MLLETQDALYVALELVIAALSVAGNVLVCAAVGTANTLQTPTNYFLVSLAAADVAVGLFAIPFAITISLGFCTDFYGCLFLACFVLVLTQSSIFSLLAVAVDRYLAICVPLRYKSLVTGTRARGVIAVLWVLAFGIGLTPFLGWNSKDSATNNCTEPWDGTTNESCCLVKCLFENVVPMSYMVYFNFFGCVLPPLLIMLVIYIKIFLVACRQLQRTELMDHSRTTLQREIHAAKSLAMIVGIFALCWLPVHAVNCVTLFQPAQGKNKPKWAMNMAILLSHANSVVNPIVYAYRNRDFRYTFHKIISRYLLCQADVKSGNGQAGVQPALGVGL
How it was run: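 CHO-K1 cells expressing human A2b receptor with a CRE-driven firefly luciferase reporter, co-incubated with test compound and NECA at its same-day EC50 concentration. Luminescence read 3 hours after NECA addition.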

[2] = test system: IL-6 release by human fibroblast cell line LL29; assay: NECA-induced IL-6 release by LL29 fibroblasts (ELISA); format: cell-based; settings: NECA 10 μM, 24 hours incubation, IL-6 ELISA of supernatant, in some cases means, rounded to two significant digits
Protocol: B-2. Measurement of NECA-Induced IL-6 Release by LL29 Fibroblasts
Stimulation of fibroblasts with adenosine or the adenosine analog 5′-N-ethylcarboxamidoadenosine (NECA) leads to release of the pro-inflammatory and pro-fibrotic cytokine IL-6 which can be prevented by inhibition of the A2b receptor.
Accordingly, confluent cells of the human fibroblast cell line LL29 were treated with the test substances and stimulated with NECA (10 μM). After an incubation time of 24 hours, the cell supernatant is removed and human IL-6 in the cell supernatant is determined by ELISA (Quantikine® IL6 ELISA, R&D Systems, Minneapolis, USA).

SMILES | IC50 [1] [nM] | IC50 [2] [nM]
Cc1c(C(=O)N2CCC(O)CC2)sc2c1c(=O)n(CCc1ccccc1)c(=O)n2CCC=C(F)F [Example 2, 1-(4,4-Difluorobut-3-en-1-yl)-6-[(4-hydroxypiperidin-1-yl)carbonyl]-5-methyl-3-(2-phenylethyl)thieno[2,3-d]pyrimidine-2,4(1H,3H)-dione] | 44 | 53
Cc1c(C(=O)N2CCC(O)CC2)sc2c1c(=O)n(CCc1cccnc1)c(=O)n2CCC=C(F)F [Example 16, 1-(4,4-Difluorobut-3-en-1-yl)-6-[(4-hydroxypiperidin-1-yl)carbonyl]-5-methyl-3-[2-(pyridin-3-yl)ethyl]thieno[2,3-d]pyrimidine-2,4(1H,3H)-dione] | 38 | 89
Cc1ccccc1CCn1c(=O)c2c(C)c(C(=O)N3CCC(O)CC3)sc2n(CCC(F)(F)F)c1=O [Example 8, 6-[(4-Hydroxypiperidin-1-yl)carbonyl]-5-methyl-3-[2-(2-methylphenyl)ethyl]-1-(3,3,3-trifluoropropyl)thieno[2,3-d]pyrimidine-2,4(1H,3H)-dione] | 20 | 34
Cc1c(C(=O)N2CCC(O)CC2)sc2c1c(=O)n(CCc1ccccc1)c(=O)n2CCC(F)(F)F [Example 1, 6-[(4-Hydroxypiperidin-1-yl)carbonyl]-5-methyl-3-(2-phenylethyl)-1-(3,3,3-trifluoropropyl)thieno[2,3-d]pyrimidine-2,4(1H,3H)-dione] | 37 | 59
